#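 Growth conditions: 96-well plates. Treatment: test compound, 48 hours, 5 concentrations. Analysis: linear interpolation between bracketing concentrations; unreached endpoints set to highest concentration. GI50 = concentration required for 50% inhibition of growth. TGI marks complete inhibition of growth.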
# How the values were obtained:
# Experiment in all cases: NCI-60 cell line screen, 48 h
# [1] = tested on: MDA-MB-231 breast
# [2] = tested on: MDA-MB-468 breast
# [3] = tested on: M14 melanoma
# [4] = tested on: NCI-H226 lung
# [5] = tested on: TK-10 renal
# [6] = tested on: SK-OV-3 ovarian
# [7] = tested on: UACC-62 melanoma
# [8] = tested on: LOX IMVI melanoma
# [9] = tested on: DU-145 prostate
# [10] = tested on: MOLT-4 leukemia
# [11] = tested on: BT-549 breast
# [12] = tested on: CAKI-1 renal
# [13] = tested on: SK-MEL-2 melanoma
# [14] = tested on: RXF 393 renal
# [15] = tested on: PC-3 prostate
# [16] = tested on: HS 578T breast
# [17] = tested on: NCI-H23 lung
# [18] = tested on: RPMI-8226 leukemia
# [19] = tested on: SF-268 CNS
# [20] = tested on: HCT-116 colon
# [21] = tested on: HOP-92 NSCLC
# [22] = tested on: A498 renal
# [23] = tested on: MCF7 breast
# [24] = tested on: HOP-62 NSCLC
# [25] = tested on: SR leukemia
# [26] = tested on: SF-295 CNS
# [27] = tested on: HT29 colon
# [28] = tested on: UACC-257 melanoma
# [29] = tested on: A549 NSCLC
# [30] = tested on: K-562 leukemia
# [31] = tested on: OVCAR-4 ovarian
# [32] = tested on: HCC-2998 colon
# [33] = tested on: MALME-3M melanoma
# [34] = tested on: EKVX NSCLC
# [35] = tested on: CCRF-CEM leukemia
# [36] = tested on: T-47D breast
# [37] = tested on: SNB-75 CNS
# [38] = tested on: HL-60(TB) leukemia
# [39] = tested on: SN12C renal
# [40] = tested on: IGROV1 ovarian
# [41] = tested on: SK-MEL-5 melanoma
# [42] = tested on: KM12 colon
# [43] = tested on: NCI-H522 lung
# [44] = tested on: ACHN renal
# [45] = tested on: SW-620 colon
# [46] = tested on: SK-MEL-28 melanoma
# [47] = tested on: 786-0 renal
# [48] = tested on: COLO 205 colon
# [49] = tested on: OVCAR-8 ovarian
# [50] = tested on: SF-539 CNS
# [51] = tested on: SNB-19 CNS
# [52] = tested on: U251 CNS
# [53] = tested on: MDA-MB-435
# [54] = tested on: NCI-H460 lung
# [55] = tested on: OVCAR-5 ovarian
# [56] = tested on: OVCAR-3 ovarian
# [57] = tested on: HCT-15 colon
# [58] = tested on: NCI/ADR-RES ovarian
smiles,measurement,setting,value
O=C(/C=C/c1ccc(F)cc1)c1nc2ccccc2n1Cc1ccc(F)cc1,GI50,[1],2.25 µM
same,TGI,[1],5.59 µM
same,GI50,[2],2.19 µM
same,TGI,[2],6.05 µM
same,GI50,[3],2.82 µM
same,TGI,[3],> 100 µM
same,GI50,[4],5.79 µM
same,TGI,[4],> 100 µM
same,GI50,[5],2.97 µM
same,TGI,[5],> 100 µM
same,GI50,[6],15.5 µM
same,TGI,[6],> 100 µM
same,GI50,[7],2.02 µM
same,TGI,[7],7.09 µM
same,GI50,[8],1.56 µM
same,TGI,[8],3.08 µM
same,GI50,[9],3.48 µM
same,TGI,[9],> 100 µM
same,GI50,[10],2.06 µM
same,TGI,[10],6.04 µM
same,GI50,[11],2.6 µM
same,TGI,[11],8.56 µM
same,GI50,[12],2.26 µM
same,TGI,[12],> 100 µM
same,GI50,[13],2.35 µM
same,TGI,[13],6.17 µM
same,GI50,[14],1.59 µM
same,TGI,[14],3.4 µM
same,GI50,[15],3.63 µM
same,TGI,[15],> 100 µM
same,GI50,[16],2.58 µM
same,TGI,[16],20.4 µM
same,GI50,[17],2.88 µM
same,TGI,[17],14.1 µM
same,GI50,[18],1.86 µM
same,TGI,[18],5.03 µM
same,GI50,[19],3.33 µM
same,TGI,[19],> 100 µM
same,GI50,[20],1.86 µM
same,TGI,[20],4.46 µM
same,GI50,[21],2.56 µM
same,TGI,[21],57.9 µM
same,GI50,[22],> 100 µM
same,TGI,[22],> 100 µM
same,GI50,[23],1.62 µM
same,TGI,[23],> 100 µM
same,GI50,[24],3.2 µM
same,TGI,[24],17.6 µM
same,GI50,[25],1.86 µM
same,TGI,[25],6.01 µM
same,GI50,[26],2.59 µM
same,TGI,[26],8.27 µM
same,GI50,[27],2.33 µM
same,TGI,[27],4.93 µM
same,GI50,[28],3.1 µM
same,TGI,[28],> 100 µM
same,GI50,[29],3.92 µM
same,TGI,[29],> 100 µM
same,GI50,[30],2.68 µM
same,TGI,[30],> 100 µM
same,GI50,[31],4.3 µM
same,TGI,[31],> 100 µM
same,GI50,[32],2.1 µM
same,TGI,[32],4.71 µM
same,GI50,[33],2.61 µM
same,TGI,[33],9.59 µM
same,GI50,[34],3.48 µM
same,TGI,[34],> 100 µM
same,GI50,[35],2.26 µM
same,TGI,[35],7.46 µM
same,GI50,[36],3.13 µM
same,TGI,[36],> 100 µM
same,GI50,[37],1.11 µM
same,TGI,[37],6.44 µM
same,GI50,[38],1.73 µM
same,TGI,[38],4.81 µM
same,GI50,[39],3.64 µM
same,TGI,[39],> 100 µM
same,GI50,[40],3.03 µM
same,TGI,[40],> 100 µM
same,GI50,[41],2.63 µM
same,TGI,[41],9.85 µM
Cc1ccc([N+](=O)[O-])c(C(=O)Nc2ccc(-c3ccc4c(c3)NC(=O)/C4=C\c3ccc[nH]3)cc2)c1,GI50,[42],> 100 µM
same,TGI,[42],> 100 µM
same,GI50,[2],0.267 µM
same,TGI,[2],0.943 µM
same,GI50,[3],> 100 µM
same,TGI,[3],> 100 µM
same,GI50,[4],23.4 µM
same,TGI,[4],> 100 µM
same,GI50,[5],22.7 µM
same,TGI,[5],62 µM
same,GI50,[6],23.6 µM
same,TGI,[6],63.2 µM
same,GI50,[7],90.4 µM
same,TGI,[7],> 100 µM
same,GI50,[8],45.9 µM
same,TGI,[8],> 100 µM
same,GI50,[43],17 µM
same,TGI,[43],45.6 µM
same,GI50,[9],43.8 µM
same,TGI,[9],> 100 µM
same,GI50,[44],43.6 µM
same,TGI,[44],> 100 µM
same,GI50,[10],11.2 µM
same,TGI,[10],> 100 µM
same,GI50,[11],9.01 µM
same,TGI,[11],61 µM
same,GI50,[12],> 100 µM
same,TGI,[12],> 100 µM
same,GI50,[45],> 100 µM
same,TGI,[45],> 100 µM
same,GI50,[46],> 100 µM
same,TGI,[46],> 100 µM
same,GI50,[14],14.6 µM
same,TGI,[14],30.6 µM
same,GI50,[15],> 100 µM
same,TGI,[15],> 100 µM
same,GI50,[16],26.3 µM
same,TGI,[16],> 100 µM
same,GI50,[47],24.4 µM
same,TGI,[47],68.8 µM
same,GI50,[17],1.78 µM
same,TGI,[17],19.2 µM
same,GI50,[18],> 100 µM
same,TGI,[18],> 100 µM
same,GI50,[48],53.1 µM
same,TGI,[48],> 100 µM
same,GI50,[49],18.7 µM
same,TGI,[49],39.7 µM
same,GI50,[19],31.1 µM
same,TGI,[19],> 100 µM
same,GI50,[20],23.2 µM
same,TGI,[20],> 100 µM
same,GI50,[21],21.3 µM
same,TGI,[21],57.1 µM
same,GI50,[22],23 µM
same,TGI,[22],49.8 µM
same,GI50,[23],0.237 µM
same,TGI,[23],17.1 µM
same,GI50,[24],22.2 µM
same,TGI,[24],54 µM
same,GI50,[25],10.4 µM
same,TGI,[25],> 100 µM
same,GI50,[26],29.2 µM
same,TGI,[26],> 100 µM
same,GI50,[50],25.4 µM
same,TGI,[50],> 100 µM
same,GI50,[27],> 100 µM
same,TGI,[27],> 100 µM
same,GI50,[28],> 100 µM
same,TGI,[28],> 100 µM
same,GI50,[29],> 100 µM
same,TGI,[29],> 100 µM
same,GI50,[30],> 100 µM
same,TGI,[30],> 100 µM
same,GI50,[31],24.4 µM
same,TGI,[31],> 100 µM
same,GI50,[32],60 µM
same,TGI,[32],> 100 µM
same,GI50,[33],36.7 µM
same,TGI,[33],> 100 µM
same,GI50,[51],19.9 µM
same,TGI,[51],50.3 µM
same,GI50,[34],0.211 µM
same,TGI,[34],> 100 µM
same,GI50,[52],16.4 µM
same,TGI,[52],35.5 µM
same,GI50,[35],> 100 µM
same,TGI,[35],> 100 µM
same,GI50,[36],0.515 µM
same,TGI,[36],20.9 µM
same,GI50,[53],> 100 µM
same,TGI,[53],> 100 µM
same,GI50,[54],3.48 µM
same,TGI,[54],> 100 µM
same,GI50,[38],> 100 µM
same,TGI,[38],> 100 µM
same,GI50,[55],23.9 µM
same,TGI,[55],> 100 µM
same,GI50,[39],55.2 µM
same,TGI,[39],> 100 µM
same,GI50,[40],17.8 µM
same,TGI,[40],55 µM
same,GI50,[56],27.6 µM
same,TGI,[56],98.8 µM
same,GI50,[41],> 100 µM
same,TGI,[41],> 100 µM
same,GI50,[57],> 100 µM
same,TGI,[57],> 100 µM
same,GI50,[58],17 µM
same,TGI,[58],38.1 µM
